PubChem BioAssay (NCI)
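Cells were grown in 96-well plates and exposed to each compound for 48 hours at five concentrations; endpoints were interpolated linearly between bracketing concentrations, or set to the highest concentration if not reached. At the TGI there is no net growth.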

Columns and labels:
Experiment in all cases: NCI tumour cell line growth inhibition, 48 h
[1] = tested on: MOLT-4 leukemia
[2] = tested on: A498 renal
[3] = tested on: HCC-2998 colon
[4] = tested on: SK-OV-3 ovarian
[5] = tested on: SNB-78 CNS
[6] = tested on: DMS 273 small cell lung
[7] = tested on: RPMI-8226 leukemia
[8] = tested on: UO-31 renal
[9] = tested on: SN12C renal
[10] = tested on: NCI-H522 lung
[11] = tested on: OVCAR-3 ovarian
[12] = tested on: COLO 205 colon
[13] = tested on: M19-MEL melanoma
[14] = tested on: OVCAR-5 ovarian
[15] = tested on: HCT-116 colon
[16] = tested on: UACC-257 melanoma
[17] = tested on: HOP-18 NSCLC
[18] = tested on: RXF 393 renal
[19] = tested on: RXF-631 renal
[20] = tested on: MALME-3M melanoma
[21] = tested on: LXFL 529 NSCLC
[22] = tested on: A549 NSCLC
[23] = tested on: HOP-62 NSCLC
[24] = tested on: DMS 114 small cell lung
[25] = tested on: SNB-75 CNS
[26] = tested on: EKVX NSCLC
[27] = tested on: 786-0 renal
[28] = tested on: M14 melanoma
[29] = tested on: TK-10 renal
[30] = tested on: U251 CNS
[31] = tested on: HOP-92 NSCLC
[32] = tested on: K-562 leukemia
[33] = tested on: OVCAR-8 ovarian
[34] = tested on: HT29 colon
[35] = tested on: IGROV1 ovarian
[36] = tested on: HCT-15 colon
[37] = tested on: OVCAR-4 ovarian
[38] = tested on: UACC-62 melanoma
[39] = tested on: CCRF-CEM leukemia
[40] = tested on: NCI-H460 lung
[41] = tested on: DLD-1 colon
[42] = tested on: SK-MEL-2 melanoma
[43] = tested on: SK-MEL-5 melanoma
[44] = tested on: SNB-19 CNS
[45] = tested on: SF-539 CNS
[46] = tested on: SF-268 CNS
[47] = tested on: ACHN renal
[48] = tested on: SF-295 CNS
[49] = tested on: KM20L2 colon
[50] = tested on: LOX IMVI melanoma
[51] = tested on: KM12 colon
[52] = tested on: SK-MEL-28 melanoma
[53] = tested on: SW-620 colon
[54] = tested on: NCI-H226 lung
[55] = tested on: XF 498 CNS
[56] = tested on: NCI-H23 lung
[57] = tested on: HL-60(TB) leukemia
[58] = tested on: CAKI-1 renal

Compound: CC(C)=CC1CCc2ccccc2N1S(=O)(=O)c1ccc(C)cc1 (stereo not given)
- TGI [1]: 10.3 µM
- TGI [2]: 6.98 µM
- TGI [3]: 7.95 µM
- TGI [4]: > 100 µM
- TGI [5]: > 100 µM
- TGI [6]: 1.59 µM
- TGI [7]: 5.07 µM
- TGI [8]: > 100 µM
- TGI [9]: > 100 µM
- TGI [10]: 5.77 µM
- TGI [11]: 4.25 µM
- TGI [12]: 5.4 µM
- TGI [13]: 13.7 µM
- TGI [14]: > 31.6 µM
- TGI [15]: 6.69 µM
- TGI [16]: 23.6 µM
- TGI [17]: > 100 µM
- TGI [18]: 5.14 µM
- TGI [19]: > 100 µM
- TGI [20]: 51.5 µM
- TGI [21]: > 47.2 µM
- TGI [22]: 18.9 µM
- TGI [23]: 14 µM
- TGI [24]: 4.12 µM
- TGI [25]: > 25.1 µM
- TGI [26]: > 100 µM
- TGI [27]: 12.1 µM
- TGI [28]: 7.38 µM
- TGI [29]: > 31.6 µM
- TGI [30]: 4.58 µM
- TGI [31]: 7.61 µM
- TGI [32]: > 100 µM
- TGI [33]: > 31.3 µM
- TGI [34]: 3.24 µM
- TGI [35]: > 100 µM
- TGI [36]: > 31.6 µM
- TGI [37]: > 31.6 µM
- TGI [38]: 16.1 µM
- TGI [39]: > 100 µM
- TGI [40]: 8.02 µM
- TGI [41]: > 100 µM
- TGI [42]: 7.12 µM
- TGI [43]: 5.12 µM
- TGI [44]: > 100 µM
- TGI [45]: 3.14 µM
- TGI [46]: 85.8 µM
- TGI [47]: > 31.6 µM
- TGI [48]: > 21.4 µM
- TGI [49]: 3.12 µM
- TGI [50]: 12.6 µM
- TGI [51]: 6.16 µM
- TGI [52]: > 40.1 µM
- TGI [53]: > 100 µM
- TGI [54]: 6.05 µM
- TGI [55]: 26.8 µM
- TGI [56]: 5.7 µM

Compound: CC1=C(C(=O)CC(=O)C(=O)Nc2ccccc2C(F)(F)F)Sc2ccccc2N1
- TGI [2]: > 100 µM
- TGI [3]: > 100 µM
- TGI [4]: > 100 µM
- TGI [5]: > 100 µM
- TGI [6]: > 100 µM
- TGI [7]: > 100 µM
- TGI [8]: 61.7 µM
- TGI [9]: > 100 µM
- TGI [10]: 68.4 µM
- TGI [11]: > 100 µM
- TGI [12]: > 100 µM
- TGI [14]: > 100 µM
- TGI [15]: > 100 µM
- TGI [16]: > 100 µM
- TGI [18]: 66.2 µM
- TGI [19]: > 100 µM
- TGI [20]: > 100 µM
- TGI [21]: > 100 µM
- TGI [22]: > 100 µM
- TGI [23]: 96.8 µM
- TGI [24]: > 100 µM
- TGI [25]: 80.1 µM
- TGI [26]: > 100 µM
- TGI [27]: > 100 µM
- TGI [28]: > 100 µM
- TGI [29]: > 100 µM
- TGI [30]: > 100 µM
- TGI [31]: 83.5 µM
- TGI [32]: > 100 µM
- TGI [33]: > 100 µM
- TGI [34]: > 100 µM
- TGI [35]: > 100 µM
- TGI [36]: > 100 µM
- TGI [37]: > 100 µM
- TGI [38]: > 100 µM
- TGI [39]: > 100 µM
- TGI [40]: > 100 µM
- TGI [41]: > 100 µM
- TGI [42]: > 100 µM
- TGI [43]: > 100 µM
- TGI [44]: > 100 µM
- TGI [45]: > 100 µM
- TGI [46]: 71.4 µM
- TGI [47]: > 100 µM
- TGI [48]: > 100 µM
- TGI [49]: > 100 µM
- TGI [57]: > 100 µM
- TGI [50]: > 100 µM
- TGI [58]: > 100 µM
- TGI [51]: > 100 µM
- TGI [53]: > 100 µM
- TGI [54]: 87.8 µM
- TGI [55]: > 100 µM
- TGI [56]: 85.6 µM
